The values that follow come from the METLIN SMRT retention time set (Domingo-Almenara et al. 2019).

Each structure is given as a SMILES string.

A short description of the data set: gradient 5% acetonitrile 3 min, to 50% in 2 min, to 85% in 15 min, held 3 min, 100 µL/min. The settings on record: column: Zorbax Extend-C18 2.1 x 50 mm; eluents: water / acetonitrile, 0.1% formic acid. In a few lines: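 Retention times come from adduct peaks that were picked computationally and then checked by hand. The standards, pure and pooled in mixtures of ~100 molecules, were run on a Zorbax Extend-C18 column (2.1 × 50 mm, 1.8 μm) at 100 μL/min with water and acetonitrile, each with 0.1% formic acid. Detection was by quadrupole time-of-flight mass spectrometry in positive and negative ionization mode, with a dead volume of 40 μL and a dwell volume of 900 μL.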
For the compound `Cc1ccn2cc(-c3ccc(NS(=O)(=O)c4ccc5nc(C)sc5c4)cc3)nc2n1`, the RP-LC retention time stood at 641 s. The compound `O=C(Cn1c2c(c(=O)n(C3CCCCC3)c1=O)CCC2)NCc1ccc2c(c1)OCO2` yielded an RP-LC retention time of 799 s.

The compound `CSc1ccccc1NC(=O)Cn1cnc(-c2cccs2)cc1=O` displayed an RP-LC retention time of 749 s. On to `Cc1nn2c(S(=O)(=O)N3CCCCC3)c(C(C)C)nc2s1`, for which the RP-LC retention time stood at 911 s. Compound `c1cncc(-c2nc(-c3ccc4c(c3)nnn4CCN3CCCCC3)no2)c1` yielded an RP-LC retention time of 614 s. `Cc1nc2c(NC(=O)c3ccc(Cl)cc3)cccn2n1`: the RP-LC retention time turned out to be 835 s. Take `COC(=O)c1c(NC(=O)c2cc3ccccc3c(=O)o2)sc2c1CCCC2`: the RP-LC retention time amounted to 748 s. The compound `Cc1cc(NC(=O)C2Oc3ccccc3NC2=O)ccc1Br` (centres undefined) registered an RP-LC retention time of 865 s. Compound `COC1C(=O)N(c2cccc(F)c2)C12CCN(C(=O)C1(c3ccccc3)CC1)CC2` (centres undefined) returned an RP-LC retention time of 994 s. As for `Cc1nn(C(C)C(=O)NCCCN2CCC(N3CCCCC3)CC2)c(=O)c2c1sc1ccccc12` (centres undefined), the RP-LC retention time amounted to 592 s. `CCn1c(N2CCCC(C(=O)NCc3cccnc3)C2)cc(=O)n(C)c1=O` (centres undefined) showed an RP-LC retention time of 575 s. In turn, `Cc1ccc2[nH]c(=O)c(CCC(=O)NCCCN3CCc4ccccc4C3)cc2c1` yielded an RP-LC retention time of 629 s.

As for `CCc1cc(C2CCCN2C(=O)Nc2ccccc2Cl)on1` (centres undefined), the RP-LC retention time worked out at 910 s. With `CCc1ccc2[nH]c3c(c(=O)c2c1)CN(CC(=O)NCc1ccc(F)cc1)CC3` the figure was 626 s; with `CC(C)c1noc(-c2ccn3c(CC(=O)N4CCc5ccccc5C4)nnc3c2)n1`, 822 s; with `CC(C)c1ccc(-n2nc(N3CCN(C(=O)c4ccc5c(c4)OCO5)CC3)ccc2=O)cc1`, 914 s. For `CC(C)C(NC(=O)c1ccc(F)c(Cl)c1)C(=O)Nc1nc2ccccc2[nH]1` (centres undefined), the RP-LC retention time turned out to be 756 s.

Regarding `OC(COCC(c1ccccc1)c1ccccc1)Cn1cnc2ccccc21` (centres undefined), the RP-LC retention time worked out at 639 s.

Compound `COc1ccccc1C(=O)NC1CCN(c2cc(-c3ccccc3)[nH]n2)C1` (centres undefined) yielded an RP-LC retention time of 718 s. In the case of `Cc1cccc(-n2c(=O)c3c(cc(C)n3C)n(CC(=O)Nc3ccc(C(F)(F)F)cc3)c2=O)c1`, the RP-LC retention time is 968 s. Regarding `O=C(CCc1ccccc1)NCCc1c[nH]c2ccc(Cl)cc12`, the RP-LC retention time was determined as 895 s. Take `Cn1nc(C(=O)N2CCCC(C(=O)N3CCCC3)C2)c2c1CCN(C(=O)c1ccccc1F)C2` (centres undefined): the RP-LC retention time turned out to be 658 s. `COCCN1C(=O)CN(Cc2ccc(C)cc2)C(=O)C1c1cccs1` (centres undefined) registered an RP-LC retention time of 849 s.

`O=c1ccc(S(=O)(=O)N2CCOCC2)cn1Cc1cccc(Cl)c1`: the RP-LC retention time was 809 s.

`COc1ccccc1Oc1c(NS(=O)(=O)c2ccc(C(C)(C)C)cc2)nc(-c2ncccn2)nc1OCCO`: the RP-LC retention time amounted to 939 s. As to `Nc1ccc(OC(=O)Nc2ccc(O)cc2)cc1`, the RP-LC retention time was determined as 608 s. With `O=C(c1ccc(F)cc1)N1CCC(C(=O)N2CCc3ccccc32)CC1` the figure was 822 s.

`CCc1cc(=O)n(CC(=O)Nc2cccc(Br)c2)c(N2CCOCC2)n1` came in with an RP-LC retention time of 831 s.

As to `O=c1n(Cc2ccc(F)cc2Cl)nc2ccc(S(=O)(=O)N3CCCCC3)cn12`, the RP-LC retention time stood at 990 s. Compound `CCCNC(=O)N1CCC(CCOc2cccnc2)CC1` yielded an RP-LC retention time of 588 s. `Cc1cc(N2CCN(C(=O)Nc3ccc(F)c(Cl)c3)CC2)nc(N2CCCC2)n1` showed an RP-LC retention time of 701 s.

`CCOC(=O)C1CCC(CNC(=O)Nc2cc3c(cc2N2CCCCC2)n(C)c(=O)n3C)CC1` (centres undefined) displayed an RP-LC retention time of 689 s. On to `Cn1cc(SCC(=O)Nc2cccc(F)c2)c2ccccc21`, for which the RP-LC retention time was determined as 896 s.

`CCOc1ccccc1CNC(=O)c1nc(N2CCOCC2)c2ccccc2n1` gave an RP-LC retention time of 738 s. `CCc1ccc(NC(=O)c2ccc(=O)n(CCN3CCOCC3)c2)cc1`: the RP-LC retention time turned out to be 637 s. With `Cc1sc2cc(C(=O)N(C)C)[nH]c2c1CN1CCCCC1` the figure was 606 s. On to `O=C(Nc1nnc(C2CC(=O)N(c3ccc(F)cc3)C2)o1)c1cccc(F)c1` (centres undefined), for which the RP-LC retention time is 730 s. In turn, `CC1CCCN(C(=O)c2cn(-c3ccc(-c4nc(C(C)(C)C)no4)cn3)cn2)C1` (centres undefined) displayed an RP-LC retention time of 1080 s. In turn, `Cc1ccccc1-c1noc(Cn2ccn(-c3ccccc3)c(=O)c2=O)n1` registered an RP-LC retention time of 834 s. `CC(C)C(=O)N1CCc2cc(CNS(=O)(=O)Cc3ccccc3)ccc21` gave an RP-LC retention time of 652 s. `Cc1ccccc1-c1noc(Cn2c(=O)n(Cc3ccc4c(c3)OCO4)c(=O)c3sccc32)n1` displayed an RP-LC retention time of 1110 s.

With `CC(C)CN1CCC(N2CC(COc3ccccc3)C3(CCOCC3)C2)CC1` (centres undefined), the RP-LC retention time turned out to be 574 s. `COc1ccc(C(=O)c2cnc3cc4c(cc3c2N2CCN(C)CC2)OCCO4)cc1`: the RP-LC retention time is 560 s. With `Cc1ccc(C(=O)N2CCN(S(=O)(=O)c3cc4c5c(c3)CCC(=O)N5CCC4)CC2)cc1C` the figure was 850 s; with `COc1ccc(-c2nc(C)cc(C)c2CNS(=O)(=O)c2ccc(C)cc2)cc1`, 670 s. `CC(C)N1CC(c2nc(-c3ccccc3)no2)C2(CCCC2)C1` (centres undefined) gave an RP-LC retention time of 737 s. On to `COc1ccc2[nH]c(=O)c(CCC(=O)NCc3cccs3)cc2c1`, for which the RP-LC retention time came to 805 s. As for `C=CCN(Cc1nc(-c2ccc(C)cc2)no1)C(=O)Nc1cccc(Cl)c1`, the RP-LC retention time was 1150 s. `Cn1cc(S(=O)(=O)N2CCC(C(=O)N3CCCCCC3)CC2)cc1C(=O)N1CCCCC1` registered an RP-LC retention time of 770 s. The value for `Clc1ccc(-c2noc(Cc3nc(-c4ccc5c(c4)OCO5)cs3)n2)cc1` was 1260 s; that for `Cc1[nH]c(C(=O)N2CCC(CC(=O)NCCCOC(C)C)CC2)c(C)c1C` was 715 s. With `Nc1cc(C2CCN(C(=O)c3cccc(F)c3)CC2)no1` the figure was 658 s; with `Cc1oc(-c2[nH]ncc2C(=O)N(C)C)cc1S(=O)(=O)NC1CC1`, 614 s. In turn, `Nc1c(Cl)ncnc1NCCO` registered an RP-LC retention time of 557 s.

The compound `CC(C)c1noc(-c2ccnc(-n3cnc(C(=O)N4CCOCC4)c3)c2)n1` yielded an RP-LC retention time of 748 s. Compound `Cc1cc(Br)ccc1NC(=O)CCc1c(-c2ccc(F)cc2)nc2ccccn12` showed an RP-LC retention time of 728 s. The value for `COc1ccc2c(c1)C1(CCN(S(=O)(=O)c3ccc(F)c(C)c3)C1)C(=O)N2C` (centres undefined) was 973 s; that for `CCS(=O)(=O)Nc1ccc(C2(C(=O)NCc3ccc(C)cc3)CCC2)cc1` was 863 s; that for `COc1ccc(-c2nnc(-c3cccc(S(=O)(=O)N4CCOCC4)c3)o2)cc1` was 868 s. Take `CC(Oc1ccccc1)C(=O)N1CCN(c2nc(CN3CCCCC3)cs2)CC1` (centres undefined): the RP-LC retention time came out at 650 s. As to `CC(C)c1nnc2n1CCN(C(=O)c1ccc(Cl)s1)C2`, the RP-LC retention time was 661 s. Consider `Cc1cc(NC(=O)C2CCCN(C(=O)C3Sc4ccccc4NC3=O)C2)ccc1Br` (centres undefined), for which the RP-LC retention time was 901 s. In turn, `CC(NC(=O)CCc1c(-c2ccc(Br)cc2)nc2ccccn12)c1ccccc1` (centres undefined) displayed an RP-LC retention time of 770 s. On to `CCN1C(=O)CCc2cc(NS(=O)(=O)c3cccc(Cl)c3)ccc21`, for which the RP-LC retention time amounted to 1000 s.

`Cc1nc(-c2ccc(N3CCN(C(=O)c4ccsc4)CC3)nc2)sc1C` yielded an RP-LC retention time of 803 s. `CN(CCc1noc(-c2ccccc2)n1)C(=O)Nc1cccc(Br)c1` had an RP-LC retention time of 977 s. In turn, `O=C(NC1CCN(c2cc(-c3ccc(F)cc3)[nH]n2)C1)c1cccc(Br)c1` (centres undefined) gave an RP-LC retention time of 806 s.

On to `O=C(c1ccc(OCC2CCCN2C(=O)c2cccs2)cc1)N1CCCC1` (centres undefined), for which the RP-LC retention time was 815 s. With `CCC1Oc2ccc(S(=O)(=O)N3CCC(C(=O)NC4CCCCCCC4)CC3)cc2NC1=O` (centres undefined) the figure was 977 s; with `CN(CC1CCOC1)C(=O)Nc1ccccc1` (centres undefined), 653 s. The compound `CC1=C(c2ccc(C)cc2)S(=O)(=O)N=C1N1CCCN(C(=O)c2ccc(C)cc2)CC1` came in with an RP-LC retention time of 885 s.

In turn, `CC(=O)N1CCc2[nH]c3ccc(C(=O)NCc4ccc(N5CCOCC5)cc4)cc3c2C1` showed an RP-LC retention time of 635 s. The compound `CC(=O)C1CC[C@H]2[C@@H]3CC[C@@H]4CC(=O)CC[C@]4(C)[C@H]3CC[C@]12C` (some centres undefined) came in with an RP-LC retention time of 1050 s. Turning to `Cc1ccc(-c2noc(-c3ccc(=O)n(Cc4ccc(Cl)cc4)c3)n2)cc1`, the RP-LC retention time was found to be 1230 s.

`CCOc1cccc(C2C(C(=O)OC(C)C)=C(C)NC3=C2C(=O)C(C(=O)OC)C(C)C3)c1` (centres undefined) yielded an RP-LC retention time of 968 s. `CN(C)c1ccc(-c2nc3cnccn3c2Nc2ccccc2)cc1` displayed an RP-LC retention time of 745 s. `O=C(NC1CCN(c2cc(-c3ccccc3)[nH]n2)C1)c1ccc(Br)cc1` (centres undefined) gave an RP-LC retention time of 752 s. `O=C(Cn1nc2c(N3CCc4ccccc4C3)nccn2c1=O)NC1CCCCC1` returned an RP-LC retention time of 865 s. `O=C(Cn1nc(N2CCSCC2)c2ccccc2c1=O)Nc1ccc2c(c1)OCCO2` showed an RP-LC retention time of 818 s.
